pIC50: −log10 of the molar value.
What follows are molecules tested against T1, Acyl-CoA: Cholesterol Acyltransferase (ACAT) (Rattus norvegicus, UniProt Q7TQM4) (assay: Inhibition of Acyl-CoA: Cholesterol Acyltransferase (ACAT) in Hepatic Microsomes (In Vitro Assay)). Details: 75 μM 14C-oleoyl-CoA, pH 7.4, 37° C., 10 min, read-out: ACAT Inhibitory Activity (In Vitro) (IC50).
T1 construct: centrifuged at 105,000×g for 1 hour to pellet the microsomes; from tissue; host or cells: liver microsomes of male Sprague Dawley rats
T1 sequence (Q7TQM4 1-524): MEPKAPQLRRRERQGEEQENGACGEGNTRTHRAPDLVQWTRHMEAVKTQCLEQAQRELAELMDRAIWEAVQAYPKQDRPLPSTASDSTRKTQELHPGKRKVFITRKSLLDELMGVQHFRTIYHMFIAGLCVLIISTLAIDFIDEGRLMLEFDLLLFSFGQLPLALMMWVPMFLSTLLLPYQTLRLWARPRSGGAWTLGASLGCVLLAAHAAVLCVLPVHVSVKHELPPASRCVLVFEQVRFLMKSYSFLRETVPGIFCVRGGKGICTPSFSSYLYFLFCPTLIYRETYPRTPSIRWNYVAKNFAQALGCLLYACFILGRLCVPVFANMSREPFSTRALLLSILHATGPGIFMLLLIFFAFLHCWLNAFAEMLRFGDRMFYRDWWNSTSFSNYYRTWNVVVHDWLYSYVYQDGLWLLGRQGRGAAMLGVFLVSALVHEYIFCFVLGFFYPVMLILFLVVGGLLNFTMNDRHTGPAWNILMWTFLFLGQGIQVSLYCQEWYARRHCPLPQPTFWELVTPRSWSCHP
Format: biochemical, rat (male Sprague Dawley)
Protocol: A. Assay of the Inhibition of Acyl-CoA: Cholesterol Acyltransferase (ACAT) in Hepatic Microsomes (In Vitro Assay)
The ability of the compounds to inhibit ACAT, the enzyme responsible for the intracellular synthesis of cholesteryl esters, was tested as follows. Male Sprague Dawley rats weighing 150-300 g, were fed rat chow ad libitum. The animals were fasted for twenty-four hours prior to being euthanized by CO2. The livers were perfused in situ with 50 ml of cold 0.25 sucrose, excised, and homogenized in three volumes of 0.1M phosphate buffer, pH 7.4, that contained 0.5 mM EDTA (ethylenediamine-tetraacetic acid), 1.0 mM glutathione, 0.25M sucrose and […] leupeptin. Microsomes were obtained by differential centrifugation; the supernatant from an initial spin at 15,000×g for 15 minutes was centrifuged at 105,000×g for 1 hour to pellet the microsomes. The microsomes were suspended in homogenization buffer, reisolated by centrifugation, and stored at -70° C. Microsomes were used within one month of preparation.
The control assay in a final volume of 200 μl consisted of 200 μg of microsomal protein, 75 μM ^14 C-oleoyl-CoA (10,000 dpm/nmol) in 0.1M phosphate, pH 7.4, that contained 1 mM glutathione. Compounds were added in 5 μl of DMSO (dimethyl sulfoxide) and additional controls were run with DMSO only. All components, except the oleoyl-CoA, were preincubated for 15 min. at 37° C. prior to the initiation of the reaction by the addition of oleoyl-CoA. The assay was terminated after 10 min by the addition of 4 ml of chloroform:methanol (2:1, v/v). 20,000 dpm of ^3 H-cholesteryl oleate and 10 μg of unlabeled cholesteryl oleate and oleic acid were added as an internal standard and carriers, respectively. After allowing 10 min. for lipid extraction, the samples were centrifuged at 1,000×g for 10 min to separate the solvent layers. The chloroform layer containing the neutral lipids was spotted onto a Baker SI250-Pa silica gel TLC plate and the plate developed using a hexane:diethyl ether:acetic acid (170:30:1) v/v/v) mobile phase. The lipids were visualized by their interaction with iodine vapor and the cholesteryl ester spot was scraped into a scintillation vial and counted. The specific activity of ACAT in the control incubation averaged 260 pmol/min/mg microsomal protein. The data obtained are expressed as the concentration at which ACAT activity is inhibited by 50% (IC50).
In the case of CCCCCCSC(C(=O)Nc1c(SC)cc(C)nc1SC)c1ccc(C(C)C)cc1 (stereo not drawn) [Example 403, N-[2,4-bis(methylthio)-6-methyl-3-pyridyl]-α-hexylthio-4-isopropylphenylacetamide], the pIC50 was greater than 6.00.
For CSc1cc(C)nc(SC)c1NC(=O)C(SCc1ccc(Cl)cc1)c1ccc(C(C)C)cc1 (stereo not drawn) [Example 410, N-[2,4-bis(methylthio)-6-methyl-3-pyridyl]-α-(4-chloro-benzylthio)-4-isopropylphenylacetamide], the pIC50 was greater than 6.00.
With CCCCOc1ccc(CSC(C(=O)Nc2c(SC)cc(C)nc2SC)c2ccc(C(C)C)cc2)cc1 (stereo not drawn) [Example 411, N-[2,4-bis(methylthio)-6-methyl-3-pyridyl]-α-(4-butoxy-benzylthio)-4-isopropylphenylacetamide] the pIC50 was greater than 6.00.
CCCCCCSC(C(=O)Nc1c(SC)cc(C)nc1SC)c1ccc(C(C)(C)C)cc1 (stereo not drawn) [Example 431, N-[2,4-bis(methylthio)-6-methyl-3-pyridyl]-α-hexylthio-4-tert-butylphenylacetamide] was tested, and the pIC50 was greater than 6.00.
Work on CSc1cc(C)nc(SC)c1NC(=O)C(SCc1ccccc1)c1ccc(C(C)(C)C)cc1 (stereo not drawn) [Example 435, N-[2,4-bis(methylthio)-6-methyl-3-pyridyl]-α-benzylthio-4-tert-butylphenylacetamide] yielded a pIC50 greater than 6.00.
Work on CSc1cc(C)nc(SC)c1NC(=O)C(SCc1ccc(Cl)cc1)c1ccc(C(C)(C)C)cc1 (stereo not drawn) [Example 437, N-[2,4-bis(methylthio)-6-methyl-3-pyridyl]-α-(4-chloro-benzylthio)-4-tert-butylphenylacetamide] yielded a pIC50 greater than 6.00.
Molecule CSc1cc(C)nc(SC)c1NC(=O)C(SCc1ccc(C(C)(C)C)cc1)c1ccc(C(C)(C)C)cc1 (stereo not drawn) [Example 439, N-[2,4-bis(methylthio)-6-methyl-3-pyridyl]-α-(4-tert-butyl-benzylthio)-4-tert-butylphenylacetamide] has a pIC50 greater than 6.00.
CSc1cc(C)nc(SC)c1NC(=O)C(SCc1ccccc1)c1ccc(-c2ccccc2)cc1 (stereo not drawn) [Example 463, N-[2,4-bis(methylthio)-6-methyl-3-pyridyl]-α-benzylthio-4-biphenylacetamide] gave a pIC50 greater than 6.00.
CSc1cc(C)nc(SC)c1NC(=O)C(SCc1ccc(F)cc1)c1ccc(-c2ccccc2)cc1 (stereo not drawn) [Example 464, N-[2,4-bis(methylthio)-6-methyl-3-pyridyl]-α-(4-fluoro-benzylthio)-4-biphenylacetamide] gave a pIC50 greater than 6.00.
In the case of COc1ccc(CSC(C(=O)Nc2c(SC)cc(C)nc2SC)c2ccc(-c3ccccc3)cc2)cc1 (stereo not drawn) [Example 465, N-[2,4-bis(methylthio)-6-methyl-3-pyridyl]-α-(4-methoxy-benzylthio)-4-biphenylacetamide], the pIC50 was greater than 6.00.
CCCCOc1ccc(CSC(C(=O)Nc2c(SC)cc(C)nc2SC)c2ccc(-c3ccccc3)cc2)cc1 (stereo not drawn) [Example 467, N-[2,4-bis(methylthio)-6-methyl-3-pyridyl]-α-(4-butoxy-benzylthio)-4-biphenylacetamide] was tested, and the pIC50 was greater than 6.00.
Molecule CSc1cc(C)nc(SC)c1NC(=O)C(SCc1cccnc1)c1ccc(-c2ccccc2)cc1 (stereo not drawn) [Example 484, N-[2,4-bis(methylthio)-6-methyl-3-pyridyl]-α-(3-pyridyl-methylthio)-4-biphenylacetamide] has a pIC50 greater than 6.00.
For CCCCCCSC(C(=O)Nc1c(SC)cc(C)nc1SC)c1ccc([N+](=O)[O-])cc1 (stereo not drawn) [Example 487, N-[2,4-bis(methylthio)-6-methyl-3-pyridyl]-α-hexylthio-4-nitro-phenylacetamide], the pIC50 was greater than 6.00.
CCCCCCSC(C(=O)Nc1c(SC)cc(C)nc1SC)c1ccc2c(c1)OCO2 (stereo not drawn) [Example 515, N-[2,4-bis(methylthio)-6-methyl-3-pyridyl]-α-hexylthio-3,4-methylenedioxyphenylacetamide] was tested, and the pIC50 was greater than 6.00.

Source: patent US5583147A, “Amides for the treatment of atherosclerosis” (The Dupont Merck Pharmaceutical Company, priority 1994, dated 1996)
